The values below come from patent US20250144067A1, “PERSONALIZED STARVATION THERAPY FOR CANCER” (Faeth Therapeutics, Inc., priority 2021, published 2025).

Where a name gives a salt, the structure may show the parent alone. Read-outs that look alike come from different tables or passages of the source.

Assay [1] concerns NCI-H292 lung cancer cells. Put plainly: FDA drug screening, complete media vs cholesterol-free media with simvastatin (TABLE 2). The assay is classed as cell-based, human.
The test system of assay [2] is NCI-H292 lung cancer cells. Put plainly: FDA drug screening, complete media vs cholesterol-free media without statin (TABLE 1). It is filed as cell-based, human.
Where [3] appears, read: NCI-H292 cells, FDA library drug in cholesterol-free media with simvastatin 0.04 μM.
Where [4] appears, read: NCI-H292 cells, FDA library drug in complete media.
Setting [5] is: complete media vs cholesterol-free media + simvastatin (0.04 μM), >0 enhanced anti-cancer activity, about 0 neutral, <0 antagonist.
Where [6] appears, read: NCI-H292 cells, FDA drug library screen, complete media.
Where [7] appears, read: NCI-H292 cells, cholesterol-free media with simvastatin 0.04 μM, FDA drug library screen (TABLE 2).
Setting [8] is: NCI-H292 cells, complete media, FDA drug library screen (TABLE 2).
[9] abbreviates: complete media minus cholesterol-free media + simvastatin (0.04 μM), >0 enhanced anti-cancer activity, about 0 neutral, <0 antagonist.
The mark [10] stands for this setting: Complete minus Cholesterol-free, >0 enhanced anti-cancer activity, about 0 neutral, <0 antagonist.
Setting [11] is: NCI-H292 cells, cholesterol-free media without statin, FDA drug library screen.
[12] abbreviates: NCI-H292 cells, complete media, FDA drug library screen.
Where [13] appears, read: NCI-H292 cells, cholesterol-free media without statin.
The mark [14] stands for this setting: NCI-H292 cells, cholesterol-free media with simvastatin 0.04 μM, cell growth value in FDA drug screen.
Where [15] appears, read: NCI-H292 cells, complete media, cell growth value in FDA drug screen.
Where [16] appears, read: complete media minus cholesterol-free media + simvastatin, >0 enhanced anti-cancer activity, about 0 neutral, <0 antagonist.
[17] abbreviates: complete vs cholesterol-free media, >0 enhanced anti-cancer activity, about 0 neutral, <0 antagonist.

For the compound `CC(C)(Oc1ccc(C2CC2(Cl)Cl)cc1)C(=O)O` (centres unmarked) [Ciprofibrate], the “Cholesterol-free media + simvastatin (0.04 μM)” value in assay [1] (setting [3]) stood at 1.569. Besides, the “Complete Media” value in assay [1] (setting [4]) was 1.161. Besides, the Difference is listed as −0.41 in assay [1] (setting [5]) and −0.11 in assay [2] (Complete minus Cholesterol-free, greater than 0 enhanced anti-cancer activity, about 0 neutral, below 0 antagonist). This compound also came in with a Cholesterol-free in assay [2] (NCI-H292 cells, FDA drug library screen, cholesterol-free media without statin) of 1.09. Further, the Complete in assay [2] (setting [6]) came to 0.9746.
Consider `Cc1nc(NC(=O)N2CCC[C@H]2C(N)=O)sc1-c1ccnc(C(C)(C)C(F)(F)F)c1` [Alpelisib], for which the “Cholesterol-free media + simvastatin (0.04 μM)” value in assay [1] (setting [7]) worked out at 0.5514. Further, in assay [1] (setting [8]), the “Complete Media” value is given as 0.5502. For the same compound, the Difference in assay [1] (setting [9]) was 0.00; in assay [2] (setting [10]), 0.04. The compound also displayed a Cholesterol-free in assay [2] (setting [11]) of 0.497. In assay [2] (setting [12]), this compound gave a Complete of 0.5335.
Tocofersolan: the “Cholesterol-free media + simvastatin (0.04 μM)” value in assay [1] (NCI-H292 cells, FDA drug library screen, cholesterol-free media with simvastatin 0.04 μM) is given as 0.3462. Also, the “Complete Media” value in assay [1] (setting [6]) is 0.6285. Moreover, the Difference was 0.28 in assay [1] (complete media minus cholesterol-free media + simvastatin, […]) and −0.32 in assay [2] (complete vs cholesterol-free media, […]). For the same compound, the Cholesterol-free in assay [2] (setting [13]) stood at 0.7811. In assay [2] (NCI-H292 cells, complete media), this compound had a Complete of 0.4609.
Turning to `N[C@@H](CS)C(=O)O` [L-Cysteine], the “Cholesterol-free media + simvastatin (0.04 μM)” value in assay [1] (setting [7]) is 1.471. The “Complete Media” value in assay [1] (setting [8]) amounted to 1.439. Further, the Difference is −0.03 in assay [1] (setting [9]) and −0.21 in assay [2] (setting [10]). In assay [2] (NCI-H292 cells, complete media), this compound gave a Complete of 0.7323.
For the compound `CCCN1CCCC[C@H]1C(=O)Nc1c(C)cccc1C` [Ropivacaine (hydrochloride)], the “Cholesterol-free media + simvastatin (0.04 μM)” value in assay [1] (NCI-H292 cells, drug in cholesterol-free media with simvastatin 0.04 μM) is recorded as 1.189. Besides, in assay [1] (NCI-H292 cells, drug in complete media), the “Complete Media” value is reported as 0.9899. The figures for the Difference in assay [1] (setting [5]) and in assay [2] (setting [10]) were −0.20 and 0.07, respectively. Besides, the Cholesterol-free in assay [2] (setting [11]) was 1.2. This compound also showed a Complete in assay [2] (setting [12]) of 1.265.
Take `CC[C@H](C)C(=O)O[C@H]1C[C@H](O)C=C2C=C[C@H](C)[C@H](CC[C@@H](O)C[C@@H](O)CC(=O)[O-])[C@H]21.[Na+]` [Pravastatin (sodium)]: the “Cholesterol-free media + simvastatin (0.04 μM)” value in assay [1] (setting [14]) was determined as 1.193. Moreover, the “Complete Media” value in assay [1] (setting [15]) is recorded as 1.235. In addition, the Difference in assay [1] (setting [16]) was 0.04; in assay [2] (Complete minus Cholesterol-free, greater than 0 enhanced anti-cancer activity, about 0 neutral, below 0 antagonists), −0.48. For the same compound, the Cholesterol-free in assay [2] (NCI-H292 cells in cholesterol-free media without statin) stood at 1.713. This compound returned a Complete in assay [2] (NCI-H292 cells in complete media) of 1.238.
With `CC(C)OC(=O)[C@H](C)N[P@](=O)(CO[C@H](C)Cn1cnc2c(N)ncnc21)Oc1ccccc1` [Tenofovir alafenamide], in assay [1], the “Cholesterol-free media + simvastatin (0.04 μM)” value came out at 0.7269, the “Complete Media” value is listed as 0.65 and the Difference is recorded as −0.08. In addition, in assay [2], the Cholesterol-free stood at 1.21, the Complete came out at 0.7227 and the Difference is −0.49.
With `CC(C)N(CCCCOCC(=O)NS(C)(=O)=O)c1cnc(-c2ccccc2)c(-c2ccccc2)n1` [Selexipag], the “Cholesterol-free media + simvastatin (0.04 μM)” value in assay [1] (setting [14]) is 0.9295. In assay [1] (setting [15]), the “Complete Media” value is 1.013. Also, the Difference in assay [1] (setting [16]) came out at 0.08; in assay [2] (setting [17]), 0.31. In assay [2] (setting [11]), this compound had a Cholesterol-free of 0.7206. The compound also yielded a Complete in assay [2] (setting [12]) of 1.028.
As for `COc1cccc2c1C(=O)c1c(O)c3c(c(O)c1C2=O)C[C@@](O)(C(=O)CO)C[C@@H]3O[C@H]1C[C@H](N)[C@H](O)[C@H](C)O1` [Doxorubicin (hydrochloride)], in assay [1] (setting [7]), the “Cholesterol-free media + simvastatin (0.04 μM)” value came to 0.09054. Also, in assay [1] (setting [8]), the “Complete Media” value is recorded as 0.01994. In addition, the Difference is on record as −0.07 in assay [1] (setting [9]) and 0.08 in assay [2] (setting [17]). The Cholesterol-free in assay [2] (setting [11]) is −0.08252. In assay [2] (setting [12]), this compound displayed a Complete of −0.006007.
In the case of `CN(CCCCCCCCCCN(C)C(=O)Oc1cccc([N+](C)(C)C)c1)C(=O)Oc1cccc([N+](C)(C)C)c1` [Demecarium Bromide], the “Cholesterol-free media + simvastatin (0.04 μM)” value in assay [1] (setting [3]) came out at 1.197. Moreover, the “Complete Media” value in assay [1] (setting [4]) is given as 0.9059. Besides, the Difference in assay [1] (complete media vs cholesterol-free media + simvastatin (0.04 μM), […]) is given as −0.29; in assay [2] (Complete minus Cholesterol-free, […]), −0.29. This compound also displayed a Cholesterol-free in assay [2] (setting [13]) of 1.112. The compound further registered a Complete in assay [2] (NCI-H292 cells, complete media) of 0.8186.
